Laboratory results reported in patent publication US20240100063A1, “COMBINATION THERAPY OF PD-1 AXIS BINDING ANTAGONISTS AND LRRK2 INHITIBORS” (Hoffmann-La Roche Inc., priority 2020, published 2024).
Entries after “also recorded” stand apart in the source; their conditions may differ.

What was measured:
[1] = tested on: MV3 cancer cells; assay: killing assay: MV3 viability upon co-culture with MART-1 T cells primed by pre-treated human cord blood derived dendritic cells; format: cell-based; details: 6 days killing assay, increasing concentration, human setting
Excerpt: (§1) A, E) Schematic representation of the killing assay experimental setup respectively in mouse and human setting. […] Data are normalized to DMSO treated dendritic cells co-cultured with CD8a T cells. F) Evaluation of MV3 cancer cells viability upon co-cultured with MART-1 T Cells primed by human cord blood derived dendritic cells pre-treated with the LRRK2 inhibitor LRRK2-IN-1. Data are normalized to MV3 cells co-cultured with T cells primed in the absence of MART1 peptide. All the experiments were performed in triplicates.
(§2) Subsequently, we investigate whether the pre-treatment of freshly isolated mouse splenic dendritic cells with increasing concentrations of the compounds can enhance the OT-1 CD8a T cells activation upon co-culture. […] Finally, as for the genetic validation in DC2.4, we challenge the splenic derived dendritic cells treated with the different compounds in a killing assay were we measured the MC38 RFP-OVA cancer cell viability upon 6 days of co-culture with OT-1 CD8a T cells primed by mouse splenic dendritic cells pre-treated with the two LRRK2 inhibitors (FIG. 5-A).

[2] = tested on: DC2.4 SCR cells; assay: antigen cross-presentation assay on DC2.4 cells (FACS, anti-mouse H-2Kb/[…] antibody); format: cell-based; details: overnight administration
Description: (§3) Cells were stained with anti-mouse H-2Kb/[…] antibody. […] F) FACS evaluation of human MART-1 T cell proliferation, upon co-culture with human cord blood derived dendritic cells pre-treated with the LRRK2 inhibitor LRRK2-IN-1. All the experiments were performed in triplicates.
as §2

[3] = tested on: MART-1 T Cells; assay: MART-1 T cell proliferation upon co-culture with pre-treated human cord blood derived dendritic cells; format: cell-based; details: human MART-1 T cells primed by human cord blood derived dendritic cells, FIG. 4-F
Description: as §3, §2

[4] = tested on: MC38 RFP-OVA cancer cells
Excerpt: as §1, §2

[5] = tested on: OT-1 CD8a T cells; assay: OT-1 CD8a T cell proliferation upon co-culture with dendritic cells pre-treated with LRRK2 inhibitors; format: cell-based, mouse
Description: as §3, §2

[6] = tested on: MC-38 tumor cells; assay: in vivo tumor growth, immunocompetent C57BL/6 mice engrafted with MC-38 tumor cells; details: anti-PD-L1 10 mg/kg i.v. once then 5 mg/kg i.p. twice per week; for MC-38 tumor growth in comparison with vehicle treated mice: PFE-360 7.5 mg/kg, Mli-2 10 mg/kg per os twice per day, day zero to day 28
Description: (§4) The experiment was carried out with 6-8 weeks female C57BL/6 mice from Janvier Labs. All procedures described in this study have been reviewed and approved by the local ethic committee (CELEAG) and validated by the French Ministry of Research. Mice was hosted in TCS BSL-2 facility by groups of 5 individuals. Mice were allowed to acclimate to the environment for 5 days prior to the beginning of the experiment. During the efficacy study, mice were monitored daily for unexpected signs of distress. Body weight was monitored 3 times a week. Mice with a cumulative clinical score or with a body weight loss >25% were sacrificed.
Mice were injected subcutaneously with 0.5×10^6 MC-38 tumor cells in 50% Matrigel. Tumor cell engraftment was defined as day zero. At day 8, mice were randomized into 4 groups of 10 mice each, according to the tumor volume. Treatments were initiated at day 9, when the average tumor volume reached ˜150 mm3 as follows: • Group 1: vehicle, dose 200 μL twice per day per os, twice per week intraperitoneal and intravenously once at day 8 • Group 2: 7915: dose 300 mg/kg per os administration twice per day. • Group 3: anti PD-L1 (clone 6E11, atezolizumab mouse surrogate): dose 10 mg/kg intravenous injection once at day 8 and dose 5 mg/kg intraperitoneal injection twice per week. • Group 4: 7915+anti-PD-L1 (clone 6E11, atezolizumab mouse surrogate): dose 300 mg/kg per os injection twice per day. Anti PD-L1: dose 10 mg/kg intravenous injection once at day 8 and dose 5 mg/kg intraperitoneal injection twice per week.
7915 (cat. num. HY-18163 from MedChemExpress). LRRK2 inhibitor was administered as free base suspensions in vehicle [1% (w/v) Avicel RC-591 and 0.2% (v/v) polysorbate 80 (Tween 80) in reverse osmosis water].
The aim of this study was to address the in vivo effect on tumor progression of LRRK2 kinase inhibition by using the LRRK2 inhibitor 7915, alone or in combination with anti-PD-L1, in immunocompetent mice engrafted with MC-38 tumor cells. C57BL/6 mice were injected subcutaneously with 0.5×10^6 MC-38 tumor cells. Tumor cell engraftment was defined as day zero. […]

[7] = tested on: MC-38 tumor cells; assay: in vivo tumor growth, immuno-deficient NSG mice engrafted with MC-38 tumor cells; set-up: species or system mouse
Description: as §4, with “NSG” for “C57BL/6”, “Jackson Laboratory.” for “Janvier Labs.”
Mice were injected subcutaneously with 0.5×10^6 MC-38 tumor cells in 50% Matrigel. Tumor cell engraftment was defined as day zero. At day 9, mice were randomized into 2 groups of 12 mice each, according to the tumor volume. Treatments were initiated at day 10, when the average tumor volume reached ˜150 mm3 as follows: • Group 1: vehicle, dose 200 μL twice per day per os • Group 2: GNE-7915: dose 300 mg/kg per os administration twice per day.
GNE-7915 (cat. num. HY-18163 from MedChemExpress). LRRK2 inhibitor was administered as free base suspensions in vehicle [1% (w/v) Avicel RC-591 and 0.2% (v/v) polysorbate 80 (Tween 80) in reverse osmosis water].
The aim of this study was to address the in vivo effect on tumor progression of LRRK2 kinase inhibition by using the LRRK2 inhibitor GNE-7915, in immuno-deficient mice engrafted with MC-38 tumor cells. NSG mice were injected subcutaneously with 0.5×10^6 MC-38 tumor cells. Tumor cell engraftment was defined as day zero. At day 9, mice were randomized into 2 groups.
Mice were injected subcutaneously with 0.5×10^6 MC-38 tumor cells in 50% Matrigel. Tumor cell engraftment was defined as day zero. At day 9, mice were randomized into 2 groups of 12 mice each, according to the tumor volume.
PFE-360 (cat. num. HY-120085 from MedChemExpress). […] LRRK2 inhibitors were administered as free base suspensions in vehicle [1% (w/v) Avicel RC-591 and 0.2% (v/v) polysorbate 80 (Tween 80) in reverse osmosis water]. […]

[8] = molecular target: LRRK2 (Homo sapiens, UniProt Q5S007); assay: KINOMEScan in vitro kinase selectivity assay, LRRK2; format: binding
Description: (§5) The in vitro kinase selectivity for the tested compounds were determined by running a KINOMEScan® (DiscoverX, CA, USA). […] Selectivity scores S(65), S(90) and S (99) in FIG. 11 are calculated as the ratio of number of non-mutated kinases inhibited by 65%, 90 or 99% divided by the total number of non-mutated kinases tested.

[9] = tested on: 403 non-mutated kinases; assay: KINOMEScan in vitro kinase selectivity assay; format: binding, human; details: for number of different kinases whose binding is inhibited by 90% or more: at 0.1 μM, 403 non-mutated kinases; for number of unrelated kinases inhibited to >90%: at lowest concentration to inhibit >90 LRRK2 (0.1 uM)
Description: FIG. 10: In vitro kinase selectivity test. […] As a reference, the pan-kinase inhibitor sunitinib was tested.
As a reference, the pan-kinase inhibitor sunitinib was tested.
Kinases other than LRRK2 are herein referred to as unrelated kinases. A selectivity score S can be determined to quantify selectivity, as shown in Example 8. In one embodiment, the selectivity score S(65) of the inhibitor (e.g. the LRRK2 inhibitor) is defined as the ratio of number of kinases inhibited by 65% of binding to their ligand as compared to binding to their ligand without the inhibitor divided by the number of kinases tested. In one embodiment, the selectivity score S(90) of the inhibitor (e.g. the LRRK2 inhibitor) is defined as the ratio of number of kinases inhibited by 90% of binding to their ligand as compared to binding to their ligand without the inhibitor divided by the number of kinases tested. In one embodiment, the selectivity score S(99) of the inhibitor (e.g. the LRRK2 inhibitor) is defined as the ratio of number of kinases inhibited by 99% of binding to their ligand as compared to binding to their ligand without the inhibitor divided by the number of kinases tested. In one embodiment, the selectivity score S is determined for a specified concentration (e.g., 0.1 μM, 1 μM, or 10 μM) of the inhibitor (e.g. the LRRK2 inhibitor). Kinase—ligand binding (and inhibition thereof) can be measured using assays as known in the art and hereinbefore described and as described in Example 8.
as §5

[10] = PFE-360 7.5 mg/kg, Mli-2 10 mg/kg per os twice per day, day zero to day 24

LRRK2, sequence (Q5S007 whole entry): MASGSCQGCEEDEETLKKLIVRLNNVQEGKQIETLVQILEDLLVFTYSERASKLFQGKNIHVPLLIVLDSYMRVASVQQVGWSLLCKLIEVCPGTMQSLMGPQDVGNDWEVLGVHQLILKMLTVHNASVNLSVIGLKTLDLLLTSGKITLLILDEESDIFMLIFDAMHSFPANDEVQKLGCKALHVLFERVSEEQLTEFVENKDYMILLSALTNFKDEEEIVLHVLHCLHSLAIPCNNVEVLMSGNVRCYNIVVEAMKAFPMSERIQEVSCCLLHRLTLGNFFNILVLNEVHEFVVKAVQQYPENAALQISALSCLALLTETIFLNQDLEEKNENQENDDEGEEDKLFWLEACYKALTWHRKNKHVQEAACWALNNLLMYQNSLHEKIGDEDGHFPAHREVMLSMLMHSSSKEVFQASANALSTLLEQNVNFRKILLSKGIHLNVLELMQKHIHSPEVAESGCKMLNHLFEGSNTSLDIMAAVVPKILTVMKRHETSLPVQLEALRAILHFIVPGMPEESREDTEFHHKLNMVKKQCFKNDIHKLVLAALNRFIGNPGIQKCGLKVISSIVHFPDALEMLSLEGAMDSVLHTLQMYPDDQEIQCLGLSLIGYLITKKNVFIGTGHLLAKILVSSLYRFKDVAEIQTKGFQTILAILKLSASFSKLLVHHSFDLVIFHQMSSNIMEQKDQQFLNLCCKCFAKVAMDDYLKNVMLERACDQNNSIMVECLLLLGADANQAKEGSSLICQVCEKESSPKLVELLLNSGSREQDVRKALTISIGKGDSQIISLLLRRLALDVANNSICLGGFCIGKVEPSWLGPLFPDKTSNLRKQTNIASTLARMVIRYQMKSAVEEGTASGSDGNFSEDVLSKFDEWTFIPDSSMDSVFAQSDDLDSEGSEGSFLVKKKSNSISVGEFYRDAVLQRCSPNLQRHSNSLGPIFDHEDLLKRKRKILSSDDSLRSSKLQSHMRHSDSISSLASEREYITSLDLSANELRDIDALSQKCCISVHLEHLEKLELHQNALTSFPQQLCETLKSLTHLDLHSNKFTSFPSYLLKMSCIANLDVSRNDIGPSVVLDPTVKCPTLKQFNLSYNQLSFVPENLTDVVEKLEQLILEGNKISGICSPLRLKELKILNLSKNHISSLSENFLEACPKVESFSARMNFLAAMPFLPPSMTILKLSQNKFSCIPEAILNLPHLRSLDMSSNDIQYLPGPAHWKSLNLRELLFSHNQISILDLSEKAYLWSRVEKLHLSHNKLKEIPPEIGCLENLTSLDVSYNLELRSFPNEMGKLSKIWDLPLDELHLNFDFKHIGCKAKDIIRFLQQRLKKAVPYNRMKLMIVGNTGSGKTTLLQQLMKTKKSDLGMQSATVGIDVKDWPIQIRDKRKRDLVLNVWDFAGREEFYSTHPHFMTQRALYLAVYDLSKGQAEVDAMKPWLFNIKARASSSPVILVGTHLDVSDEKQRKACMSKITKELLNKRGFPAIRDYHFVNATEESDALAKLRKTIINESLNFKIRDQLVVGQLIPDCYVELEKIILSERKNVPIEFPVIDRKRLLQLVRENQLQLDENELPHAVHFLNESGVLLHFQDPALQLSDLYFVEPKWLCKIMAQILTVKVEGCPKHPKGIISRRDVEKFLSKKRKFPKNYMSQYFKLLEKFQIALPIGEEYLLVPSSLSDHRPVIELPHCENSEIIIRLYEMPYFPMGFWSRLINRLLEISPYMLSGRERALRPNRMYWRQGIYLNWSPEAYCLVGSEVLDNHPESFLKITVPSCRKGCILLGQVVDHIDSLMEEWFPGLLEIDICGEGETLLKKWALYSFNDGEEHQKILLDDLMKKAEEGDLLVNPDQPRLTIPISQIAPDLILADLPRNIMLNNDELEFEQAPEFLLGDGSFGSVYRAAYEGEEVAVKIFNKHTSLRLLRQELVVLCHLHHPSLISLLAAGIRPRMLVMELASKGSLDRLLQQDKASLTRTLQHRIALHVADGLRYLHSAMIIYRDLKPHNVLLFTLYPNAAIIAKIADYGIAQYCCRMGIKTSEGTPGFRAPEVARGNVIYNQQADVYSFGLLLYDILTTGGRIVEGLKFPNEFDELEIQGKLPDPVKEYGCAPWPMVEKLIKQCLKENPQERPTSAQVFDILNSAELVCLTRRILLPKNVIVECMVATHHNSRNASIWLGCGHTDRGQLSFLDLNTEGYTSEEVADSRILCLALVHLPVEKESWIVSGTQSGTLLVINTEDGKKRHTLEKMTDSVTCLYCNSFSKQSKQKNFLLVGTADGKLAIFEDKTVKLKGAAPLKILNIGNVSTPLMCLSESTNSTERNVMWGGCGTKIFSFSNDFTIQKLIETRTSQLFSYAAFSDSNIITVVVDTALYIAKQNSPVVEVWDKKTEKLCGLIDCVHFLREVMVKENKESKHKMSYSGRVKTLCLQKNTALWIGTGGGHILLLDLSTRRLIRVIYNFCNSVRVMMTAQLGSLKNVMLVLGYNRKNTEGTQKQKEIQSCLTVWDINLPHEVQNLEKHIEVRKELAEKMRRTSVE

COc1cc(C(=O)N2CCC(N3CCN(C)CC3)CC2)ccc1Nc1ncc2c(n1)N(C)c1ccccc1C(=O)N2C [LRRK2-IN-1, 2-[2-methoxy-4-[4-(4-methylpiperazin-1-yl)piperidine-1-carbonyl]anilino]-5,11-dimethyl-pyrimido[4,5-b][1,4]benzodiazepin-6-one]
MV3 cancer cell viability [1]: dose dependent reduction of MV3 cancer cell viability | concentration showing an effect on antigen cross-presentation [2]: 1 µM | cross-presentation mediated T cell proliferation [3]: already at lowest concentration a stable increase; also recorded: increased the T cells proliferation

CCNc1nc(Nc2cc(F)c(C(=O)N3CCOCC3)cc2OC)ncc1C(F)(F)F [compound 7915, [4-[[4-(ethylamino)-5-(trifluoromethyl)pyrimidin-2-yl]amino]-2-fluoro-5-methoxy-phenyl]-morpholino-methanone]
T cell mediated cytotoxicity (MC38 RFP-OVA cancer cell viability) [4]: increased T cell mediated cytotoxicity | cross-presentation mediated T cell proliferation ([5]; murine OT1 CD8a T cells, FIG. 4-H): already at lowest concentration a stable increase | tumor growth inhibition ([6]; MC-38, vs vehicle, 7915 300 mg/kg per os twice per day, day zero to day 15): 82% | MC-38 tumor growth in comparison with vehicle treated mice ([7]; GNE-7915 300 mg/kg per os twice per day, day zero to day 21, 300 mg/kg): not modifying tumor growth; also recorded: not impacting MC-38 tumor growth

CCN(CC)CCNC(=O)c1c(C)[nH]c(/C=C2\C(=O)Nc3ccc(F)cc32)c1C [sunitinib]
inhibition at 0.1 µM [8]: < 50%

Cn1cc(-c2c[nH]c3ncnc(N4CCOCC4)c23)cc1C#N [PFE-360, 1-methyl-4-(4-morpholino-7H-pyrrolo[2,3-d]pyrimidin-5-yl)pyrrole-2-carbonitrile]
inhibition at 0.1 µM [8]: 100% | number of different kinases whose binding is inhibited by 90% or more [9]: 9 | fold more selective than sunitinib ([9]; at all concentration on average): ~2 fold | number of unrelated kinases inhibited to >90% [9]: 9 | MC-38 tumor growth in comparison with vehicle treated mice [6]: inducing tumor growth inhibition; also recorded: significantly decrease MC-38 tumor growth | MC-38 tumor growth in comparison with vehicle treated mice [7, 10]: not modifying tumor growth; also recorded: not impacting MC-38 tumor growth

C[C@@H]1CN(c2cc(-c3n[nH]c4ccc(OC5(C)CC5)cc34)ncn2)C[C@H](C)O1 [MLi-2, cis-2,6-dimethyl-4-[6-[5-(1-methylcyclopropoxy)-1H-indazol-3-yl]pyrimidin-4-yl]morpholine]
T cell mediated cytotoxicity (MC38 RFP-OVA cancer cell viability) [4]: increased T cell mediated cytotoxicity | number of different kinases whose binding is inhibited by 90% or more [9]: three | number of unrelated kinases inhibited to >90% [9]: 3 | MC-38 tumor growth in comparison with vehicle treated mice [6]: inducing tumor growth inhibition; also recorded: significantly decrease MC-38 tumor growth | MC-38 tumor growth in comparison with vehicle treated mice [7, 10]: not modifying tumor growth; also recorded: not impacting MC-38 tumor growth

CNc1nc(Nc2cnn(C3CCN(C4COC4)CC3F)c2Cl)ncc1C(F)(F)F (stereo not drawn) [compound 9605, N2-[5-chloro-1-[3-fluoro-1-(oxetan-3-yl)-4-piperidyl]pyrazol-4-yl]-N4-methyl-5-(trifluoromethyl)pyrimidine-2,4-diamine]
T cell mediated cytotoxicity (MC38 RFP-OVA cancer cell viability) [4]: increased T cell mediated cytotoxicity | concentration at which increased T cell proliferation is shown ([5]; OT-1 CD8a T cells co-cultured with pre-treated mouse splenic dendritic cells): ≥ 100 nM
